Assay [1] deals with pAKT in BT474 cells. As to the kind of experiment: Cell-based pAKT HTRF assay in BT474 cells. The following applies: BT474 cells, 4 hr incubation, read-out: pAKT inhibition IC50 in BT474 cells. The gist of the method: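 Compound titration: 3 μM downward in 3-fold steps, nine points, 4 hr on cells. Detection: lysis, then d2 plus Eu Cryptate antibody mix, room-temperature incubation of 4–24 h, and time-resolved fluorescence read at 615 nm.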

Assay [2] addresses Cys242 in human PIK3CA (157-299) (Homo sapiens (Human), UniProt P42336). As to the kind of experiment: Covalent modification assay using MALDI-TOF MS. The following applies: 4 h reaction time point. Format: biochemical. The gist of the method: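 Covalent adduct formation was read by linear-mode MALDI-TOF with sinapinic acid matrix, reported as modified-protein peak height divided by total protein peak heights. Reactions held PIK3CA (157-299) at 1 or 3.33 μM in HEPES/NaCl/MgCl2 buffer, pH 7.3, sampled after 15 min to 4 h at room temperature.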

[3] abbreviates: 1 μM protein target, 1:5 protein to compound ratio (compounds 853-1279).
Setting [4] is: 3.33 μM protein target, 1:7.5 protein to compound ratio (compounds 1-852).

Where two headings read alike, the source gives them in different places.

Chain of Cys242 in human PIK3CA (157-299) (P42336 157-299): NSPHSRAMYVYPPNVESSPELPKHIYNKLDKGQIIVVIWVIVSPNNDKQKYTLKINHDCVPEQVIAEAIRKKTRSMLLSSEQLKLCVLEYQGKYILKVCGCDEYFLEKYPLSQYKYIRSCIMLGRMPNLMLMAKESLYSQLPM

As to `C=CC(=O)N1CCn2nc(-c3nc(-c4ccc5c(cnn5C)c4)c4ccsc4c3-c3c(F)cc(F)cc3OCCOC)cc2[C@H]1C` [Compound 1131], the IC50 in assay [1] (Compounds 1000-1279) was over 1000 nM. Besides, the “% of modification” value in assay [2] (setting [3]) was “D (percent of modification <25%)”.
With `C=CC(=O)N1CCn2nc(-c3nc(-c4ccc5c(c4)CCN(C)C5)c4ccsc4c3-c3c(F)cc(F)cc3OC3CC3)cc2[C@@H]1C` [Compound 548], the IC50 in assay [1] (Compounds 10-999) was under 100 nM. Besides, in assay [2] (setting [4]), the “% of modification” value is recorded as “A (percent of modification of PIK3CA protein ≥75%)”.
Regarding `C=CC(=O)N1CC(n2cc(-c3nc(N4CCC5(CC4)CNC5)c4ccsc4c3-c3ccc(F)cc3OCCOC)cn2)C1` [Compound 98], the IC50 in assay [1] (Compounds 10-999) was 1000 to 3000 nM. For the same molecule, the “% of modification” value in assay [2] (setting [4]) is “A (percent of modification of PIK3CA protein ≥75%)”.
On to `C=CC(=O)N1CCc2cc(-c3nc(-c4cnc5c(cnn5C)c4)c4ccsc4c3-c3c(F)cc(F)cc3OCCOC)nn2CC1` [Compound 1023], for which, in assay [1] (Compounds 1000-1279), the IC50 was under 100 nM. In addition, the “% of modification” value in assay [2] (setting [3]) is recorded as “A (percent of modification of PIK3CA protein ≥75%)”.
The like results for `C=CC(=O)N1CCn2nc(-c3nc(-c4ccc5c(c4)CCN(CC(F)F)CC5)c4ccsc4c3-c3c(F)cc(F)cc3OCCOC)cc2C1C` (centres unmarked) [Compound 1122] were, in that order, under 100 nM and “A (percent of modification of PIK3CA protein ≥75%)”.
Take `C=CC(=O)N1Cc2cc(-c3nc(-c4ccc5nn(C)cc5c4)c4ccsc4c3-c3c(F)cc(F)cc3OC[C@@H](C)O)nn2[C@@H](C)C1` [Compound 571, 1-((S)-2-((R)-7-(2,4-difluoro-6-((R)-2-hydroxypropoxy)phenyl)-4-(2-methyl-2H-indazol-5-yl)thieno[3,2-c]pyridin-6-yl)-7-methyl-6,7-dihydropyrazolo[1,5-a]pyrazin-5(4H)-yl)prop-2-en-1-one]: the concentration for half-maximal inhibition (IC50) in assay [1] (Compounds 10-999) was under 100 nM. Further, the “% of modification” value in assay [2] (setting [4]) was “D (percent of modification <25%)”.
In the case of `C=CC(=O)N1CCc2ncc(-c3nc(-c4ccc5c(c4)CNC(=O)C5)c4ccsc4c3-c3c(F)cc(F)cc3OCCOC)cc2C1` [Compound 963], the IC50 in assay [1] (Compounds 10-999) is under 100 nM. In assay [2] (setting [3]), the “% of modification” value is listed as “A (percent of modification of PIK3CA protein ≥75%)”.
`C=C(F)C(=O)N1CCn2nc(-c3nc(-c4ccc5c(c4)CNC5=O)c4ccsc4c3-c3c(F)cc(F)cc3OC(C)C)nc2C1` [Compound 315]: in assay [1] (Compounds 10-999), the IC50 was under 100 nM. Also, in assay [2] (setting [4]), the “% of modification” value is reported as “A (percent of modification of PIK3CA protein ≥75%)”.
On to `C=CC(=O)N1CC[C@H](n2cc(-c3nc(-c4ccc5c(c4)CCNC5)c4ccsc4c3-c3ccc(F)cc3OCC3CCNC(=O)C3)ccc2=O)C1` (some centres unmarked) [Compound 214], for which the IC50 in assay [1] (Compounds 10-999) was in the range of 100 to 1000 nM. In assay [2] (setting [4]), the “% of modification” value is recorded as “A (percent of modification of PIK3CA protein ≥75%)”.
Regarding `C=CC(=O)N1Cc2cc(-c3nc(-c4ccc5c(c4)CNC5=O)c4ccsc4c3-c3c(F)cc(F)cc3OC)nn2C(C)C1` (centres unmarked) [Compound 910], the IC50 in assay [1] (Compounds 10-999) was in the range of 100 to 1000 nM. Further, the “% of modification” value in assay [2] (setting [3]) is “B (50%<percent of modification <75%)”.
As to `C=C(F)C(=O)N1CCn2nc(-c3nc(-c4cnc5c(c4)CN(C)CC5)c4ccsc4c3-c3c(F)cc(F)cc3OC(C)C)nc2C1` [Compound 310], the IC50 in assay [1] (Compounds 10-999) is under 100 nM. In assay [2] (setting [4]), the “% of modification” value was “A (percent of modification of PIK3CA protein ≥75%)”.
As to `C=CC(=O)N1CCc2cc(-c3nc(-c4ccc5c(c4)C(=O)NC5)c4ccsc4c3-c3c(F)cc(F)cc3OCCOC)nn2CC1` [Compound 1025], the IC50 in assay [1] (Compounds 1000-1279) was under 100 nM. In assay [2] (setting [3]), the “% of modification” value is given as “A (percent of modification of PIK3CA protein ≥75%)”.
For the molecule `C=CC(=O)N1CC[C@H](n2ccc(-c3nc(-c4cnn(C)c4)c4ccsc4c3-c3ccc(F)cc3OC(C)C)n2)C1` [Compound 318], in assay [1] (Compounds 10-999), the IC50 is under 100 nM. Also, the “% of modification” value in assay [2] (setting [4]) is on record as “A (percent of modification of PIK3CA protein ≥75%)”.
For `C=CC(=O)N1CCc2nc(-c3nc(N4CCN(C(C)C)C(=O)C4)c4ccsc4c3-c3ccc(F)cc3OCCOC)sc2C1` [Compound 176], the IC50 in assay [1] (Compounds 10-999) lay within 100 to 1000 nM. Moreover, in assay [2] (setting [4]), the “% of modification” value is given as “A (percent of modification of PIK3CA protein ≥75%)”.
As to `C=CC(=O)N1CCc2nc(-c3nc(-c4ccn(C)c(=O)c4)c4ccsc4c3-c3c(F)cc(F)cc3OC(C)C)sc2C1` [Compound 352], the IC50 in assay [1] (Compounds 10-999) was under 100 nM. In addition, in assay [2] (setting [4]), the “% of modification” value is “A (percent of modification of PIK3CA protein ≥75%)”.
`C=CC(=O)N1CCn2nc(-c3nc(-c4ccc5nn(C)cc5c4)c4ccsc4c3-c3c(F)cc(F)cc3OCCO)cc2[C@H]1C` [Compound 774]: the IC50 in assay [1] (Compounds 10-999) is under 100 nM. Also, in assay [2] (setting [4]), the “% of modification” value is “A (percent of modification of PIK3CA protein ≥75%)”.
The like results for `C=CC(=O)N1CCn2nc(-c3nc(-c4cnn(C)c4)c4ccsc4c3-c3ccc(F)cc3OC(C)C)c(C)c2C1` [Compound 320] were, in that order, under 100 nM and “A (percent of modification of PIK3CA protein ≥75%)”.
In the case of `C=CC(=O)N1CCn2nc(-c3nc(-c4ccc(N(C)C)nc4)c4ccsc4c3-c3c(F)cc(F)cc3OCCOC)cc2C1C` (centres unmarked) [Compound 982], in assay [1] (Compounds 10-999), the IC50 is under 100 nM. Also, the “% of modification” value in assay [2] (setting [3]) was “A (percent of modification of PIK3CA protein ≥75%)”.
With `C=CC(=O)N1CCc2ncc(-c3nc(-c4cnc5c(c4)CN(C)CC5)c4ccsc4c3-c3c(F)cc(F)cc3OC(C)C)cc2C1` [Compound 327], the IC50 in assay [1] (Compounds 10-999) is under 100 nM. Also, the “% of modification” value in assay [2] (setting [4]) is given as “A (percent of modification of PIK3CA protein ≥75%)”.
The like results for `C=CC(=O)N1CC(n2cc(-c3nc(-c4ccc(S(=O)(=O)NC)cc4)c4ccsc4c3-c3ccc(F)cc3OC)cn2)C1` [Compound 196] were, in that order, 100 to 1000 nM and “A (percent of modification of PIK3CA protein ≥75%)”.
The matching figures for `C=CC(=O)N1CCc2ncc(-c3nc(-c4cnn(CC(F)F)c4)c4ccsc4c3-c3c(F)cc(F)cc3OC(C)C)cc2C1` [Compound 371]: under 100 nM and “A (percent of modification of PIK3CA protein ≥75%)”.
For the molecule `C=CC(=O)N1CCn2nc(-c3nc(-c4ccc5c(cnn5C)c4)c4ccsc4c3-c3c(F)cc(F)cc3OC)cc2C1C` (centres unmarked) [Compound 1115], the IC50 in assay [1] (Compounds 1000-1279) was under 100 nM. Further, in assay [2] (setting [3]), the “% of modification” value was “A (percent of modification of PIK3CA protein ≥75%)”.
Take `C=CC(=O)N1CCn2nc(-c3nc(-c4cnc5c(c4)CN(C)CC5)c4ccsc4c3-c3ccc(F)cc3OC(C)C)cc2C1` [Compound 283]: the IC50 in assay [1] (Compounds 10-999) was under 100 nM. The “% of modification” value in assay [2] (setting [4]) is reported as “A (percent of modification of PIK3CA protein ≥75%)”.
Take `C=CC(=O)N1CCn2nc(-c3nc(-c4ccc(C(=O)NC5CN(C)C5)cc4)c4ccsc4c3-c3c(F)cc(F)cc3OCCOC)cc2C1C` (centres unmarked) [Compound 1095]: in assay [1] (Compounds 1000-1279), the IC50 was under 100 nM. Further, the “% of modification” value in assay [2] (setting [3]) was “A (percent of modification of PIK3CA protein ≥75%)”.
The like results for `C=CC(=O)N1CCn2nc(-c3nc(-c4ccc(OC5CN(C)C5)cc4)c4ccsc4c3-c3c(F)cc(F)cc3OCCOC)cc2C1C` (centres unmarked) [Compound 1094] were, in that order, under 100 nM and “A (percent of modification of PIK3CA protein ≥75%)”.
Turning to `C=CC(=O)N1Cc2cc(-c3nc(-c4ccc5c(c4)CN(C)C5=O)c4ccsc4c3-c3c(F)cc(F)cc3OCCOC)nn2CC1C` (centres unmarked) [Compound 474], the IC50 in assay [1] (Compounds 10-999) is under 100 nM. Besides, in assay [2] (setting [4]), the “% of modification” value is on record as “A (percent of modification of PIK3CA protein ≥75%)”.
The matching figures for `C=CC(=O)N1CCc2ncc(-c3nc(-c4ccc5c(c4)CCNCC5)c4ccsc4c3-c3ccc(F)cc3OC)cc2C1` [Compound 103]: 100 to 1000 nM and “A (percent of modification of PIK3CA protein ≥75%)”.
On to `C=CC(=O)N1CCc2nc(-c3nc(-c4ccc5c(c4)CCC(N(C)C)C5)c4ccsc4c3-c3ccc(F)cc3OCCOC)sc2C1` (centres unmarked) [Compound 148], for which the IC50 in assay [1] (Compounds 10-999) is under 100 nM. Besides, the “% of modification” value in assay [2] (setting [4]) is “A (percent of modification of PIK3CA protein ≥75%)”.
As for `C=CC(=O)N1CCn2nc(-c3nc(-c4ccc(C(=O)NCCN(C)C)cc4)c4ccsc4c3-c3c(F)cc(F)cc3OCCOC)cc2C1C` (centres unmarked) [Compound 1059], the IC50 in assay [1] (Compounds 1000-1279) was under 100 nM. For the same molecule, in assay [2] (setting [3]), the “% of modification” value was “A (percent of modification of PIK3CA protein ≥75%)”.
Consider `C=CC(=O)N1CCn2nc(-c3nc(N4CCCCC4)c4ccsc4c3-c3ccc(F)cc3OCC3CCN(C)C(=O)C3)cc2C1` (centres unmarked) [Compound 243], for which, in assay [1] (Compounds 10-999), the IC50 was in the range of 100 to 1000 nM. In addition, the “% of modification” value in assay [2] (setting [4]) is “A (percent of modification of PIK3CA protein ≥75%)”.
The like results for `C=CC(=O)N1CCc2ncc(-c3nc(-c4cnc5c(c4)CNC(=O)C5)c4ccsc4c3-c3ccc(F)cc3OCCOC)cc2C1` [Compound 117] were, in that order, under 100 nM and “A (percent of modification of PIK3CA protein ≥75%)”.
On to `C=CC(=O)N1CCc2sc(-c3nc(-c4ccc5c(c4)CCNC5)c4ccsc4c3-c3ccc(F)cc3OCCOC)nc2C1` [Compound 146], for which, in assay [1] (Compounds 10-999), the IC50 was under 100 nM. In addition, the “% of modification” value in assay [2] (setting [4]) is “A (percent of modification of PIK3CA protein ≥75%)”.
As for `C=CC(=O)N1CCn2nc(-c3nc(-c4ccc(OC5CN(C)C5)nc4)c4ccsc4c3-c3c(F)cc(F)cc3OCCOC)cc2C1C` (centres unmarked) [Compound 1205], the concentration for half-maximal inhibition (IC50) in assay [1] (Compounds 1000-1279) was under 100 nM. For the same molecule, in assay [2] (setting [3]), the “% of modification” value is “A (percent of modification of PIK3CA protein ≥75%)”.
For `C=CC(=O)N1CCc2nc(-c3nc(-c4cnn(C)c4)c4ccsc4c3-c3c(F)cc(F)cc3OCCO)sc2C1` [Compound 398], in assay [1] (Compounds 10-999), the IC50 is under 100 nM. Besides, the “% of modification” value in assay [2] (setting [4]) was “A (percent of modification of PIK3CA protein ≥75%)”.

The record behind these values is patent publication US20250230138A1, “COMPOUNDS HAVING A T-STRUCTURE FORMED BY AT LEAST FOUR CYCLES FOR USE IN THE TREATMENT OF CANCER AND OTHER INDICATIONS” (TheRas, Inc., priority 2022, published 2025).
